According to patent US10874334B1, “Methods and systems for quantification of blood-brain barrier permeation of glycosylated peptides” (ARIZONA BOARD OF REGENTS ON BEHALF OF THE UNIVERSITY OF …, priority 2016, dated 2020):

Experiments:
[1] = Degradation study of enkephalins spiked into cerebral spinal fluid (CSF) from rats; conditions: for stability (degradation) in CSF with 5% HAc: CSF from rats + 5% HAc (+CSF+HAc), compared with isotonic aCSF
[2] = Degradation study of enkephalins spiked into rodent serum (FIA-MS^n); conditions: for stability (degradation) in serum with 5% acetic acid: rat serum + 5% acetic acid (HAc), 60-minute period before measurements (Ser+HAc+60 min); for stability (degradation) in serum: rat serum, peptides incubated in serum for 60 minutes prior to the study (Ser+60 min)
Description: Ser refers to when Enkephalins were added to rat serum and degradation was allowed to proceed and the remaining enkephalin levels were measured at specific time points. […] Ser+HAc+60 min refers to when 5% acetic acid (HAc) was added to the serum, preserving enkephalins by inhibiting degradation during a 60 minute period before beginning measurements (Ser+HAc+60 min.). All error bars are SEM. Statistical significance is indicated by asterisks when p<0.05.
Degradation studies of enkephalins in biological fluids were performed by […]. […] Enkephalins were added to rat serum and degradation was allowed to proceed and the remaining enkephalin levels were measured at specific time points (Ser).

## CC(C)C[C@H](NC(=O)[C@H](Cc1ccccc1)NC(=O)CNC(=O)CNC(=O)[C@@H](N)Cc1ccc(O)cc1)C(=O)O [Leu-Enkephalin, leucine enkephalin]
[1]; CSF from rats (+CSF), single exponential decay fit
  stability (degradation) in CSF: degradation occurs in CSF over 20 minutes
[1]
  stability (degradation) in CSF with 5% HAc: prevents the degradation
[2]
  stability (degradation) in serum with 5% acetic acid: preserved enkephalins by inhibiting degradation
  stability (degradation) in serum: degradation was already complete

## methionine enkephalin [Met-Enkephalin]
[1]
  stability (degradation) in CSF with 5% HAc: prevents the degradation
[2]
  stability (degradation) in serum with 5% acetic acid: preserved enkephalins by inhibiting degradation
  stability (degradation) in serum: degradation was already complete
